# Experimental data as given in ChEMBL document CHEMBL2331130, “Synthesis and antibacterial activity of 9-oxime ether non-ketolides, and novel binding mode of alkylides with bacterial rRNA” (2013).
# Experiments:
# Format in all cases: functional
# [1] = system: Streptococcus pyogenes; experiment: Antibacterial activity against MLS-resistant (constitutive) Streptococcus pyogenes A2 by broth microdilution method
# [2] = system: Staphylococcus epidermidis; experiment: Antibacterial activity against methicillin-susceptible, MLS-resistant (inducible) Staphylococcus epidermidis E1 by broth microdilution method
# [3] = system: Staphylococcus epidermidis; experiment: Antibacterial activity against methicillin-resistant, coagulase-negative, MLS-resistant (inducible) Staphylococcus epidermidis E3 by broth microdilution method
# [4] = system: Staphylococcus aureus; experiment: Antibacterial activity against erythromycin-susceptible Staphylococcus aureus ATCC 29213 by broth microdilution method
# [5] = system: Streptococcus pneumoniae; experiment: Antibacterial activity against erythromycin-susceptible Streptococcus pneumoniae ATCC 49619 by broth microdilution method
# [6] = system: Streptococcus pneumoniae; experiment: Antibacterial activity against penicillin-susceptible Streptococcus pneumoniae PU09 harboring mef gene by broth microdilution method
# [7] = system: Streptococcus pyogenes; experiment: Antibacterial activity against erythromycin-susceptible Streptococcus pyogenes A3 by broth microdilution method
# [8] = system: Staphylococcus aureus; experiment: Antibacterial activity against methicillin-resistant, […], MLS-resistant (constitutive) Staphylococcus aureus PU 19 by broth microdilution method
# [9] = system: Staphylococcus aureus; experiment: Antibacterial activity against methicillin-susceptible, MLS-resistant (inducible) Staphylococcus aureus PU 64 by broth microdilution method
# [10] = system: Streptococcus dysgalactiae; experiment: Antibacterial activity against erythromycin-resistant Streptococcus dysgalactiae A1 by broth microdilution method
# [11] = system: Staphylococcus aureus; experiment: Antibacterial activity against methicillin-resistant, MLS-resistant (inducible) Staphylococcus aureus PU 32 by broth microdilution method
# [12] = system: Staphylococcus aureus; experiment: Antibacterial activity against methicillin-resistant, MLS-resistant (constitutive) Staphylococcus aureus PU 20 by broth microdilution method
# [13] = system: Streptococcus pneumoniae; experiment: Antibacterial activity against MLS-resistant (constitutive), penicillin-susceptible Streptococcus pneumoniae PU27 by broth microdilution method
# [14] = system: Streptococcus pneumoniae; experiment: Antibacterial activity against MLS-resistant (constitutive), penicillin-resistant Streptococcus pneumoniae PU11 by broth microdilution method
# [15] = system: Staphylococcus epidermidis; experiment: Antibacterial activity against methicillin-resistant, MLS-resistant (constitutive) Staphylococcus epidermidis E2 by broth microdilution method
# [16] = system: Streptococcus dysgalactiae; experiment: Ratio of telithromycin MIC to compound MIC for erythromycin-resistant Streptococcus dysgalactiae A1 by broth microdilution method
# [17] = system: Staphylococcus epidermidis; experiment: Ratio of telithromycin MIC to compound MIC for methicillin-resistant, coagulase-negative, MLS-resistant (inducible) Staphylococcus epidermidis E3 by broth microdilution method
# [18] = system: Staphylococcus aureus; experiment: Ratio of telithromycin MIC to compound MIC for methicillin-resistant, […], MLS-resistant (constitutive) Staphylococcus aureus PU 19 by broth microdilution method
# [19] = system: Streptococcus pyogenes; experiment: Ratio of telithromycin MIC to compound MIC for MLS-resistant (constitutive) Streptococcus pyogenes A2 by broth microdilution method
Structure (SMILES),MIC [1],MIC [2],MIC [3],MIC [4],MIC [5],MIC [6],MIC [7],MIC [8],MIC [9],MIC [10],MIC [11],MIC [12],MIC [13],MIC [14],MIC [15],Ratio [16],Ratio [17],Ratio [18],Ratio [19]
CC[C@H]1OC(=O)[C@H](C)[C@@H](OC(=O)Cc2cccnc2)[C@H](C)[C@@H](O[C@@H]2O[C@H](C)C[C@H](N(C)C)[C@H]2O)[C@](C)(OC)C[C@@H](C)/C(=N\OCC#Cc2cncc3ccccc23)[C@H](C)[C@H]2OC(=O)O[C@@]21C,64 µg/mL,> 256 µg/mL,> 256 µg/mL,32 µg/mL,1 µg/mL,8 µg/mL,1 µg/mL,> 256 µg/mL,32 µg/mL,8 µg/mL,64 µg/mL,> 256 µg/mL,64 µg/mL,64 µg/mL,> 256 µg/mL,,,,
CC[C@H]1OC(=O)[C@H](C)[C@@H](O/C=C\Cc2cncnc2)[C@H](C)[C@@H](O[C@@H]2O[C@H](C)C[C@H](N(C)C)[C@H]2O)[C@](C)(OC)C[C@@H](C)/C(=N\OC/C=C/c2cnc3ccccc3c2)[C@H](C)[C@H]2OC(=O)O[C@@]21C,64 µg/mL,> 256 µg/mL,> 256 µg/mL,32 µg/mL,2 µg/mL,32 µg/mL,2 µg/mL,> 256 µg/mL,32 µg/mL,16 µg/mL,> 256 µg/mL,> 256 µg/mL,64 µg/mL,128 µg/mL,> 256 µg/mL,,,,
CC[C@H]1OC(=O)[C@H](C)C(=O)[C@H](C)[C@@H](O[C@@H]2O[C@H](C)C[C@H](N(C)C)[C@H]2O)[C@](C)(OC)C[C@@H](C)/C(=N\OC/C=C/c2ccc(-c3cccs3)cc2)[C@H](C)[C@H]2OC(=O)O[C@@]21C,32 µg/mL,64 µg/mL,64 µg/mL,32 µg/mL,2 µg/mL,16 µg/mL,1 µg/mL,64 µg/mL,,16 µg/mL,64 µg/mL,,,64 µg/mL,256 µg/mL,,,,
CC[C@H]1OC(=O)[C@H](C)[C@@H](O)[C@H](C)[C@@H](O[C@@H]2O[C@H](C)C[C@H](N(C)C)[C@H]2O)[C@](C)(OC)C[C@@H](C)/C(=N\OC/C=C/c2cnc3ccccc3c2)[C@H](C)[C@H]2OC(=O)O[C@@]21C,64 µg/mL,128 µg/mL,> 256 µg/mL,128 µg/mL,4 µg/mL,4 µg/mL,8 µg/mL,> 256 µg/mL,256 µg/mL,16 µg/mL,128 µg/mL,> 256 µg/mL,64 µg/mL,64 µg/mL,> 256 µg/mL,,,,
CC[C@H]1OC(=O)[C@H](C)C(=O)[C@H](C)[C@@H](O[C@@H]2O[C@H](C)C[C@H](N(C)C)[C@H]2O)[C@](C)(OC)C[C@@H](C)/C(=N\OC/C=C/c2cnc3ccccc3c2)[C@H](C)[C@H]2OC(=O)O[C@@]21C,32 µg/mL,8 µg/mL,2 µg/mL,0.5 µg/mL,0.125 µg/mL,1 µg/mL,0.032 µg/mL,64 µg/mL,,0.5 µg/mL,1 µg/mL,,,64 µg/mL,128 µg/mL,4,4,4,4
CC[C@H]1OC(=O)[C@H](C)C(=O)[C@H](C)[C@@H](O[C@@H]2O[C@H](C)C[C@H](N(C)C)[C@H]2O)[C@](C)(OC)C[C@@H](C)/C(=N\OC/C=C/c2ccc(C(=O)c3ccccc3)s2)[C@H](C)[C@H]2OC(=O)O[C@@]21C,64 µg/mL,32 µg/mL,64 µg/mL,16 µg/mL,2 µg/mL,4 µg/mL,2 µg/mL,> 256 µg/mL,,4 µg/mL,16 µg/mL,,,64 µg/mL,> 256 µg/mL,,,,
CC[C@H]1OC(=O)[C@H](C)C(=O)[C@H](C)[C@@H](O[C@@H]2O[C@H](C)C[C@H](N(C)C)[C@H]2O)[C@](C)(OC)C[C@@H](C)/C(=N\OC/C=C/c2ccc(-c3ccccn3)s2)[C@H](C)[C@H]2OC(=O)O[C@@]21C,64 µg/mL,32 µg/mL,64 µg/mL,8 µg/mL,0.5 µg/mL,4 µg/mL,0.5 µg/mL,128 µg/mL,,4 µg/mL,8 µg/mL,,,64 µg/mL,> 256 µg/mL,,,,
